In ChEMBL document CHEMBL3885861, “Open TG-GATES”:

Organism: Rattus norvegicus
Assay: Open TG-GATES - Regimen: Daily Repeat
Format: toxicity, organism-based, Sprague-Dawley
Set-up: regimen Daily Repeat, gender Male, age 6 weeks
Settings: in vivo, po, route gavage; for gamma-GTP / A/G / ALP / ALT / AST / BUN / CRE / Ca / Cl / DBIL / GLC / IP / K / LDH / Na / PL / RALB / TBIL / TC / TG / TP: tissue Plasma; for APTT / Bas / Eos / Fbg / Hb / Ht / Lym / MCH / MCHC / MCV / Mono / Neu / PT / Plat / RBC / Ret / WBC: tissue Blood; for KIDNEY_L / KIDNEY_R / KIDNEY_TOTAL: tissue Kidney; for LIVER: tissue Liver
[1] = 3 mg/kg, […], dose level Low, time 28 day
[2] = 10 mg/kg, 72 h, dose level Middle, time 3 day
[3] = 10 mg/kg, […], dose level Middle, time 7 day
[4] = 10 mg/kg, […], dose level Middle, time 14 day
[5] = 10 mg/kg, […], dose level Middle, time 28 day
[6] = 30 mg/kg, 72 h, dose level High, time 3 day
[7] = 30 mg/kg, […], dose level High, time 7 day
[8] = 30 mg/kg, […], dose level High, time 14 day

CCN(CC)N=O [N-NITROSODIETHYLAMINE]
gamma-GTP (3 mg/kg, […], dose level Low, time 14 day): 1.2 IU/L
A/G [1]: 1.3
ALP [1]: 685.6 IU/L
ALT [1]: 37.6 IU/L
AST [1]: 69.4 IU/L
BUN [1]: 15.6 mg/dL
CRE [1]: 0.5 mg/dL
Ca [1]: 10.2 mg/dL
Cl [1]: 103.2 meq/L
DBIL [1]: 0.1 mg/dL
GLC [1]: 203.8 mg/dL
IP [1]: 7 mg/dL
K [1]: 3.7 meq/L
LDH [1]: 198.4 IU/L
Na [1]: 141.6 meq/L
PL [1]: 142.2 mg/dL
RALB [1]: 3.4 g/dL
TBIL [1]: 0.2 mg/dL
TC [1]: 72 mg/dL
TG [1]: 109.8 mg/dL
TP [1]: 6 g/dL
gamma-GTP [1]: 1.6 IU/L
TERMINAL_BW [2]: 232.4 g
APTT [2]: 17.9 s
Bas [2]: 0.4%
Eos [2]: 1%
Fbg [2]: 224.4 mg/dL
Hb [2]: 13.7 g/dL
Ht [2]: 39.6%
Lym [2]: 80.6%
MCH [2]: 21.4 pg
MCHC [2]: 34.5%
MCV [2]: 62 fL
Mono [2]: 1.8%
Neu [2]: 15.6%
PT [2]: 11.9 s
Plat [2]: 144.5 x10_4/uL
RBC [2]: 639 x10_4/ul
Ret [2]: 5.5%
WBC [2]: 81.6 x10_2/uL
KIDNEY_L [2]: 1 g
KIDNEY_R [2]: 1 g
KIDNEY_TOTAL [2]: 2 g
LIVER [2]: 9.9 g
A/G [2]: 1.5
ALP [2]: 927.8 IU/L
ALT [2]: 33.6 IU/L
AST [2]: 69 IU/L
BUN [2]: 14.4 mg/dL
CRE [2]: 0.4 mg/dL
Ca [2]: 10.6 mg/dL
Cl [2]: 103.4 meq/L
DBIL [2]: 0.09 mg/dL
GLC [2]: 186.6 mg/dL
IP [2]: 7.5 mg/dL
K [2]: 4.1 meq/L
LDH [2]: 186.8 IU/L
Na [2]: 140.8 meq/L
PL [2]: 126.4 mg/dL
RALB [2]: 3.3 g/dL
TBIL [2]: 0.1 mg/dL
TC [2]: 69 mg/dL
TG [2]: 75 mg/dL
TP [2]: 5.5 g/dL
gamma-GTP [2]: 1.4 IU/L
TERMINAL_BW [3]: 255.8 g
TERMINAL_BW [4]: 288.9 g
TERMINAL_BW [5]: 349 g
APTT [3]: 19.3 s
Bas [3]: 0.8%
Eos [3]: 1%
Fbg [3]: 210.6 mg/dL
Hb [3]: 14.7 g/dL
Ht [3]: 41.7%
Lym [3]: 80%
MCH [3]: 21.2 pg
MCHC [3]: 35.2%
MCV [3]: 60.3 fL
Mono [3]: 2.4%
Neu [3]: 15.8%
PT [3]: 12.3 s
Plat [3]: 139.2 x10_4/uL
RBC [3]: 693.4 x10_4/ul
Ret [3]: 3.4%
WBC [3]: 94.2 x10_2/uL
APTT [4]: 18.7 s
Bas [4]: 1%
Eos [4]: 1.2%
Fbg [4]: 212 mg/dL
Hb [4]: 16 g/dL
Ht [4]: 44.8%
Lym [4]: 75.2%
MCH [4]: 21.4 pg
MCHC [4]: 35.6%
MCV [4]: 60.2 fL
Mono [4]: 2.6%
Neu [4]: 20%
PT [4]: 12.8 s
Plat [4]: 135.1 x10_4/uL
RBC [4]: 745.2 x10_4/ul
Ret [4]: 3%
WBC [4]: 125 x10_2/uL
APTT [5]: 17.1 s
Bas [5]: 0.6%
Eos [5]: 0.8%
Fbg [5]: 197.8 mg/dL
Hb [5]: 16.8 g/dL
Ht [5]: 45.5%
Lym [5]: 77.4%
MCH [5]: 20.6 pg
MCHC [5]: 36.9%
MCV [5]: 55.9 fL
Mono [5]: 2.4%
Neu [5]: 18%
PT [5]: 12.7 s
Plat [5]: 115.5 x10_4/uL
RBC [5]: 815 x10_4/ul
Ret [5]: 1.9%
WBC [5]: 126.6 x10_2/uL
KIDNEY_L [3]: 1 g
KIDNEY_R [3]: 1 g
KIDNEY_TOTAL [3]: 2.1 g
KIDNEY_L [4]: 1.1 g
KIDNEY_R [4]: 1.1 g
KIDNEY_TOTAL [4]: 2.3 g
KIDNEY_L [5]: 1.2 g
KIDNEY_R [5]: 1.2 g
KIDNEY_TOTAL [5]: 2.3 g
LIVER [3]: 10.2 g
LIVER [4]: 9.6 g
LIVER [5]: 9.3 g
A/G [3]: 1.7
ALP [3]: 860.8 IU/L
ALT [3]: 36.2 IU/L
AST [3]: 78 IU/L
BUN [3]: 13.6 mg/dL
CRE [3]: 0.4 mg/dL
Ca [3]: 10.4 mg/dL
Cl [3]: 104.2 meq/L
DBIL [3]: 0.1 mg/dL
GLC [3]: 190.2 mg/dL
IP [3]: 7.4 mg/dL
K [3]: 4 meq/L
LDH [3]: 236.4 IU/L
Na [3]: 141.2 meq/L
PL [3]: 131 mg/dL
RALB [3]: 3.3 g/dL
TBIL [3]: 0.2 mg/dL
TC [3]: 71.4 mg/dL
TG [3]: 59.2 mg/dL
TP [3]: 5.3 g/dL
gamma-GTP [3]: 1.2 IU/L
A/G [4]: 1.6
ALP [4]: 1173 IU/L
ALT [4]: 52.8 IU/L
AST [4]: 91.4 IU/L
BUN [4]: 15 mg/dL
CRE [4]: 0.5 mg/dL
Ca [4]: 10.5 mg/dL
Cl [4]: 101.6 meq/L
DBIL [4]: 0.1 mg/dL
GLC [4]: 180 mg/dL
IP [4]: 7 mg/dL
K [4]: 3.8 meq/L
LDH [4]: 259 IU/L
Na [4]: 140.2 meq/L
PL [4]: 140.2 mg/dL
RALB [4]: 3.4 g/dL
TBIL [4]: 0.2 mg/dL
TC [4]: 70.4 mg/dL
TG [4]: 67.6 mg/dL
TP [4]: 5.5 g/dL
gamma-GTP [4]: 2.2 IU/L
A/G [5]: 1.7
ALP [5]: 1261.4 IU/L
ALT [5]: 69 IU/L
AST [5]: 110.4 IU/L
BUN [5]: 15 mg/dL
CRE [5]: 0.5 mg/dL
Ca [5]: 9.9 mg/dL
Cl [5]: 103.6 meq/L
DBIL [5]: 0.1 mg/dL
GLC [5]: 165.8 mg/dL
IP [5]: 5.9 mg/dL
K [5]: 3.5 meq/L
LDH [5]: 242 IU/L
Na [5]: 140.6 meq/L
PL [5]: 146.2 mg/dL
RALB [5]: 3.3 g/dL
TBIL [5]: 0.2 mg/dL
TC [5]: 70.8 mg/dL
TG [5]: 79.2 mg/dL
TP [5]: 5.3 g/dL
gamma-GTP [5]: 3.2 IU/L
TERMINAL_BW [6]: 209.6 g
APTT [6]: 17.1 s
Bas [6]: 0.6%
Eos [6]: 1.4%
Fbg [6]: 211.6 mg/dL
Hb [6]: 15.6 g/dL
Ht [6]: 44.7%
Lym [6]: 81.2%
MCH [6]: 21.3 pg
MCHC [6]: 34.8%
MCV [6]: 61.1 fL
Mono [6]: 3.4%
Neu [6]: 12.6%
PT [6]: 14.2 s
Plat [6]: 134.9 x10_4/uL
RBC [6]: 732.4 x10_4/ul
Ret [6]: 4%
WBC [6]: 84.6 x10_2/uL
KIDNEY_L [6]: 1 g
KIDNEY_R [6]: 0.9 g
KIDNEY_TOTAL [6]: 1.9 g
LIVER [6]: 7.6 g
A/G [6]: 1.8
ALP [6]: 979.2 IU/L
ALT [6]: 64.4 IU/L
AST [6]: 196.8 IU/L
BUN [6]: 12.4 mg/dL
CRE [6]: 0.4 mg/dL
Ca [6]: 10.4 mg/dL
Cl [6]: 103.2 meq/L
DBIL [6]: 0.1 mg/dL
GLC [6]: 174.6 mg/dL
IP [6]: 7.5 mg/dL
K [6]: 4 meq/L
LDH [6]: 316.8 IU/L
Na [6]: 140.4 meq/L
PL [6]: 135.8 mg/dL
RALB [6]: 3.4 g/dL
TBIL [6]: 0.2 mg/dL
TC [6]: 80.6 mg/dL
TG [6]: 59.4 mg/dL
TP [6]: 5.2 g/dL
gamma-GTP [6]: 1.6 IU/L
TERMINAL_BW [7]: 200.4 g
TERMINAL_BW [8]: 195.1 g
APTT [7]: 21.4 s
Bas [7]: 1%
Eos [7]: 1%
Fbg [7]: 153.6 mg/dL
Hb [7]: 17.4 g/dL
Ht [7]: 49%
Lym [7]: 76%
MCH [7]: 21.1 pg
MCHC [7]: 35.6%
MCV [7]: 59.2 fL
Mono [7]: 4.4%
Neu [7]: 17.4%
PT [7]: 19.5 s
Plat [7]: 126.6 x10_4/uL
RBC [7]: 827 x10_4/ul
Ret [7]: 1.6%
WBC [7]: 117.4 x10_2/uL
APTT [8]: 87.2 s
Bas [8]: 1%
Eos [8]: 0%
Fbg [8]: 66 mg/dL
Hb [8]: 16.7 g/dL
Ht [8]: 48.8%
Lym [8]: 26%
MCH [8]: 20.7 pg
MCHC [8]: 34.2%
MCV [8]: 60.5 fL
Mono [8]: 7%
Neu [8]: 65%
PT [8]: 63.4 s
Plat [8]: 112.1 x10_4/uL
RBC [8]: 807 x10_4/ul
Ret [8]: 3.6%
WBC [8]: 108.1 x10_2/uL
KIDNEY_L [7]: 0.9 g
KIDNEY_R [7]: 0.9 g
KIDNEY_TOTAL [7]: 1.8 g
KIDNEY_L [8]: 1.2 g
KIDNEY_R [8]: 1.2 g
KIDNEY_TOTAL [8]: 2.4 g
LIVER [7]: 4.6 g
LIVER [8]: 2.7 g
A/G [7]: 2
ALP [7]: 1514 IU/L
ALT [7]: 160.2 IU/L
AST [7]: 315.6 IU/L
BUN [7]: 12.6 mg/dL
CRE [7]: 0.4 mg/dL
Ca [7]: 9.6 mg/dL
Cl [7]: 104.2 meq/L
DBIL [7]: 0.7 mg/dL
GLC [7]: 140.4 mg/dL
IP [7]: 7 mg/dL
K [7]: 3.9 meq/L
LDH [7]: 465.4 IU/L
Na [7]: 138.6 meq/L
PL [7]: 171 mg/dL
RALB [7]: 2.9 g/dL
TBIL [7]: 0.9 mg/dL
TC [7]: 109 mg/dL
TG [7]: 27.4 mg/dL
TP [7]: 4.4 g/dL
gamma-GTP [7]: 9.2 IU/L
A/G [8]: 2.8
ALP [8]: 1357 IU/L
ALT [8]: 206 IU/L
AST [8]: 748 IU/L
BUN [8]: 47 mg/dL
CRE [8]: 0.7 mg/dL
Ca [8]: 9.4 mg/dL
Cl [8]: 90 meq/L
DBIL [8]: 4.2 mg/dL
GLC [8]: 61 mg/dL
IP [8]: 9.2 mg/dL
K [8]: 4.5 meq/L
LDH [8]: 983 IU/L
Na [8]: 130 meq/L
PL [8]: 245 mg/dL
RALB [8]: 2.2 g/dL
TBIL [8]: 5.1 mg/dL
TC [8]: 231 mg/dL
TG [8]: 88 mg/dL
TP [8]: 3 g/dL
gamma-GTP [8]: 16 IU/L
